Assay results from patent publication US20110144159A1, “ETHER BENZYLIDENE PIPERIDINE ARYL CARBOXAMIDE COMPOUNDS USEFUL AS FAAH INHIBITORS” (Pfizer Inc, priority 2008, published 2011).

Target: T1, Human FAAH (Homo sapiens, UniProt O00519)
T1 construct: made in house
T1 sequence (O00519 32-579 limits assumed): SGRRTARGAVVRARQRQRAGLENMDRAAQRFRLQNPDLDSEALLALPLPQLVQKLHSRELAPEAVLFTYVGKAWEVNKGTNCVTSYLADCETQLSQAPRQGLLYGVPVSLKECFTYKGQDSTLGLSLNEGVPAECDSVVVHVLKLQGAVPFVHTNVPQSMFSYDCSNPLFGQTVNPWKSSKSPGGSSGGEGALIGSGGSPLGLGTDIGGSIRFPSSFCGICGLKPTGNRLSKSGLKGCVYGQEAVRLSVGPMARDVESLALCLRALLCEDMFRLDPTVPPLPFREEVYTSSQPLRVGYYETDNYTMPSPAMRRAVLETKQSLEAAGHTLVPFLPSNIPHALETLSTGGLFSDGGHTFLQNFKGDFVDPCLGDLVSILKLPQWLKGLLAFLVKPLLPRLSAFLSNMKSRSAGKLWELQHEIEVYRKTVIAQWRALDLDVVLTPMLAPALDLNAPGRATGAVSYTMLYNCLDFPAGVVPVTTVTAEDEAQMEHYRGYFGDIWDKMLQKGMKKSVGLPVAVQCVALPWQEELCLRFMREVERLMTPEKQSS
Test: FAAH assay (glutamate dehydrogenase-coupled, oleamide substrate, absorbance at 340 nm)
Format: biochemical
Settings: irreversible inhibition potency
In short: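 Human FAAH (1-4 nM) with 50 μM oleamide, coupled to glutamate dehydrogenase/NADH, pH 7.4, 7.5% DMSO and EtOH, 30° C; A340 read every 30 s for 90 min. Irreversible inhibition fitted for kobs per concentration, then Ki and kinact from kobs vs. [I].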

Substance: N-pyridazin-3-yl-4-[3-(pyridin-2-ylmethoxy)benzylidene]piperidine-1-carboxamide [Example 46]
- hFAAH KInact/K: 353 M⁻¹ s⁻¹
